# In patent publication US20060281807A1, “Quassinoid compositions for the treatment of cancer and other proliferative diseases” (Tapestry Pharmaceuticals, Inc., priority 2005, published 2006):
# Legend:
# SK-N-AS = test: MTT cytotoxicity assay (% kill), SK-N-AS; format: cell-based, human; settings: 1 h exposure, MTT after five days
# Method in brief: (§1)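 Cells grown in 10% FBS Eagles MEM at 37 °C, 5% CO2, sextuplicate wells, exposed to compound at 0.1 or 1.0 μg/mL for 1 h or 24 h. After rinsing, they were cultured 5 more days. Viable cells then measured by MTT, expressed as % kill.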
# LS-174T = test: MTT cytotoxicity assay (% kill), LS-174T; format: cell-based, human; settings: 1 h exposure, MTT after five days
# Method in brief: as §1
# WiDr = test: MTT cytotoxicity assay (% kill), WiDr; format: cell-based, human; settings: 0.1 μg/mL, 1 h exposure
# Procedure: (§2) The following human tumor cell lines were obtained and cultured in sextuplicate microwells at 37° C. and 5% CO2 in humidified air and in 10% FBS in Eagles MEM: SK—N—FI, SK—N-AS, LS-174T, WiDr, HuTu-80, MCF7, NCI-AR, MES-Sar, and PL-45. Cells from each cell line were separately treated with an amount of one of the compounds of Formula I, II, or III (see Table 1). Cells were exposed to each compound (0.1 μg/mL or 1.0 μg/mL) for one hour or 24 hours, rinsed with drug-free media, and incubated for an additional five days. The number of viable cells after five days was measured using an MTT (3-(4,5-dimethylthiazol-2-yl)-2,5-diphenyltetrazolium bromide) assay (see, e.g., Mosmann, J. Immunol. Methods, 65(1-2), 55-63 (1983)).
# (§3) The cytotoxicity of each drug was determined and expressed as the percent of cells killed (“% kill”).
# HuTu-80 = test: MTT cytotoxicity assay (% kill), HuTu-80; format: cell-based, human; settings: 1 h exposure
# Procedure: as §2, §3
# MCF7 = test: MTT cytotoxicity assay (% kill), MCF7; format: cell-based, human; settings: 1 h exposure
# Procedure: as §2, §3
# NCI-AR = test: MTT cytotoxicity assay (% kill), NCI-AR; format: cell-based, human; settings: 1 h exposure
# Procedure: as §2, §3
# MES-Sar = test: MTT cytotoxicity assay (% kill), MES-Sar; format: cell-based, human; settings: 1 h exposure
# Procedure: as §2, §3
# PL-45 = test: MTT cytotoxicity assay (% kill), PL-45; format: cell-based, human; settings: 1 h exposure
# Procedure: as §2, §3
# HCT-116 cells = test: Clonogenic assay, HCT-116; format: cell-based, human; settings: colonies at 7 days
# tumor cells = test: Inhibition of tumor growth in vivo (% T/C) in SCID mice
# Procedure: SCID mice weighing more than 17 grams were supplied food and water ad libidum. The animals were pooled, implanted subcutaneously with tumor cells, and pooled again before distribution to treatment and control groups. Treatment was started when the tumors were palpable (i.e., 10 days after inoculation). Mice received one of four doses (i.e., 1.6, 1.2, 0.8, and 0.4 mg/mouse) of the inventive compound. Each dose was administered intravenously via the tail vein once per day for 5 days. Mice were killed when their tumors reached 1500 mm^3.
# Tumor weights were estimated from two-dimensional caliper measurements performed twice a week according to the following formula: Tumor Weight (mg)=(a×b^2)/2 in which a and b are the tumor length and width, respectively, in millimeters.
# Therapeutic efficacy was measured as the % T/C value (T=treated, C=control), which was determined each time a tumor measurement was made. The median tumor weight of the treatment and control groups was determined. A % T/C value equal to or less than 50% indicates antitumor activity. A % T/C value of <10% indicates highly significant antitumor activity, and is the level used by the National Cancer Institute (NCI) to justify a clinical trial if toxicity, formulation and other requirements are met. A weight loss of greater than 20% (mean of group) or greater than 20% drug deaths indicates an excessively toxic dose.
structure (smiles),measurement,setting,value
COC(=O)[C@@]12OC[C@@]34C1[C@@H](OC(=O)CC(O)(C(C)C)C(C)C)C(=O)O[C@@H]3C[C@H]1C(C)=C(O)C(=O)C[C@]1(C)[C@H]4[C@@H](O)[C@@H]2O (stereo partly drawn) [15-O-(3′-hydroxy-3′-isopropyl-4′-methylpentanoyl)bruceolide],"% Kill, SK-N-AS",SK-N-AS; 0.1 μg/mL,0%
same,"% Kill, SK-N-AS",SK-N-AS; 1.0 μg/mL,3%
same,"% Kill, LS-174T",LS-174T; 0.1 μg/mL,0%
same,"% Kill, LS-174T",LS-174T; 1.0 μg/mL,13%
same,"% kill, WiDr",WiDr,0%
same,"% kill, HuTu-80",HuTu-80; 0.1 μg/mL,0%
same,"% kill, HuTu-80",HuTu-80; 1.0 μg/mL,7%
same,"% kill, MCF7",MCF7; 0.1 μg/mL,12%
same,"% kill, MCF7",MCF7; 1.0 μg/mL,31%
same,"% kill, NCI-AR",NCI-AR; 0.1 μg/mL,0%
same,"% kill, NCI-AR",NCI-AR; 1.0 μg/mL,0%
same,"% kill, MES Sar",MES-Sar; 0.1 μg/mL,0%
same,"% kill, MES Sar",MES-Sar; 1.0 μg/mL,0%
same,"% kill, PL-45",PL-45; 0.1 μg/mL,0%
same,"% kill, PL-45",PL-45; 1.0 μg/mL,0%
same,Concentration Required for 10^−1 Survival Fraction,"HCT-116 cells; HCT-116, 2 Hour Exposure",>10 μg/mL
same,Concentration Required for 10^−1 Survival Fraction,"HCT-116 cells; HCT-116, 24 Hour Exposure",1 × 10^0 μg/mL
same,Concentration Required for 10^−1 Survival Fraction,"HCT-116 cells; HCT-116, Continuous Exposure",7 × 10^−3 μg/mL
same,% T/C,tumor cells; 0.4 mg/mouse intravenously once per day for 5 days (lower dose group),31%
same,% T/C,tumor cells; 0.8 mg/mouse intravenously once per day for 5 days (higher dose group of the surviving two),16%
same,mortality,tumor cells; highest two doses (1.6 and 1.2 mg/mouse) intravenously once per day for 5 days,died
COC(=O)[C@@]12OC[C@@]34C1[C@@H](OC(=O)C=C(C(C)C)C(C)C)C(=O)O[C@@H]3C[C@H]1C(C)=C(O)C(=O)C[C@]1(C)[C@H]4[C@@H](O)[C@@H]2O (stereo partly drawn) [15-O-(3′-isopropyl-4′-methyl-2′-pentenoyl)-bruceolide],Concentration Required for 10^−1 Survival Fraction,"HCT-116 cells; HCT-116, 2 Hour Exposure",>10 μg/mL
same,Concentration Required for 10^−1 Survival Fraction,"HCT-116 cells; HCT-116, 24 Hour Exposure",1.5 × 10^0 μg/mL
same,Concentration Required for 10^−1 Survival Fraction,"HCT-116 cells; HCT-116, Continuous Exposure",1.5 × 10^−3 μg/mL
